Several values for one entry are separate records, joined by “and”; a condition that tells them apart may be missing. Equal entries are not always repeated.
Test: molar heat capacity at constant pressure
Settings: 101.33 kPa

CN(C)C=O [dimethylformamide]
Crystal
Settings | molar heat capacity at constant pressure [J/K/mol]
140 K | 81.78
146.91 K | 84.72
149.76 K | 85.72
150 K | 85.56
152.73 K | 86.72
155.69 K | 87.47
158.66 K | 88.47
160 K | 89.05
161.62 K | 89.38
164.59 K | 90.46
167.56 K | 91.54
170 K | 92.62
170.53 K | 92.79
173.49 K | 94.53
178.4 K | 96.61
180 K | 96.36
184.4 K | 99.44
184.65 K | 101.2
190 K | 100.5
191.1 K | 105.5
191.8 K | 105
198.9 K | 124.1
200 K | 104.6
200.5 K | 130.6
201.1 K | 139.5
201.51 K | 150.5
210 K | 107.7
212.86 K | 108.1

Liquid, Vacuum adiabatic calorimetry
Settings | molar heat capacity at constant pressure
212.86 K | 141.4 J/K/mol
213 K | 142.4 J/K/mol
215.3 K | 141.5 J/K/mol
216.03 K | 141.8 J/K/mol
217.78 K | 141.7 J/K/mol
217.98 K | 142 J/K/mol
220 K | 141.9 J/K/mol
220.95 K | 141.8 J/K/mol
222.56 K | 142 J/K/mol
223.91 K | 142.2 J/K/mol
225.22 K | 142.2 J/K/mol
226.86 K | 142.2 J/K/mol
228.18 K | 142.4 J/K/mol
229.81 K | 142.5 J/K/mol
230 K | 142.5 J/K/mol
230.54 K | 142.5 J/K/mol
231.13 K | 142.7 J/K/mol
232.77 K | 142.5 J/K/mol
233.19 K | 142.9 J/K/mol
235.55 K | 142.5 J/K/mol
235.72 K | 142.8 J/K/mol
236.14 K | 142.7 J/K/mol
238.66 K | 143 J/K/mol
238.73 K | 143.2 J/K/mol
239.07 K | 143 J/K/mol
240 K | 143 J/K/mol
241.6 K | 143.1 J/K/mol
242.25 K | 143.5 J/K/mol
244.54 K | 143.3 J/K/mol
245.77 K | 143.3 J/K/mol
247.48 K | 143.4 J/K/mol
249.28 K | 143.4 J/K/mol
250 K | 143.6 J/K/mol
250.41 K | 143.5 J/K/mol
252.78 K | 143.7 J/K/mol
253.34 K | 143.5 J/K/mol
256.26 K | 143.9 J/K/mol
256.28 K | 144.1 J/K/mol
259.17 K | 144 J/K/mol
260 K | 144.2 J/K/mol
261.17 K | 144.3 J/K/mol
262.1 K | 144.3 J/K/mol
262.79 K | 144.5 J/K/mol
263.79 K | 144.4 J/K/mol
265.01 K | 144.6 J/K/mol
266.68 K | 144.8 J/K/mol
267.92 K | 144.6 J/K/mol
269.56 K | 145 J/K/mol
270 K | 144.9 J/K/mol
270.82 K | 144.8 J/K/mol
272.44 K | 145.3 J/K/mol
273.71 K | 145 J/K/mol
275.31 K | 145.4 J/K/mol
276.6 K | 145.4 J/K/mol
278.16 K | 145.6 J/K/mol
279.47 K | 145.6 J/K/mol
280 K | 145.9 J/K/mol
281.01 K | 146.1 J/K/mol
283.85 K | 146.6 J/K/mol
286.68 K | 146.7 J/K/mol
289.51 K | 147 J/K/mol
290 K | 147.1 J/K/mol
292.32 K | 147.4 J/K/mol
298.15 K | 148.2 J/K/mol and 148.2 J/K/mol
300 K | 148.5 J/K/mol
301.5 K | 148.7 J/K/mol
305 K | 149 J/K/mol

Reference: the NIST ThermoML archive (doi:10.1016/j.jct.2007.02.009)
